In ChEMBL document CHEMBL5532660, “Lead Optimization of BIBR1591 To Improve Its Telomerase Inhibitory Activity: Design and Synthesis of Novel Four Chemical Series with In Silico, In Vitro, and In Vivo Preclinical Assessments” (J Med Chem, 2024):
pIC50: −log10 of the molar value.

What was measured:
[1] = target: Telomerase reverse transcriptase (Homo sapiens) (UniProt O14746); assay: Inhibition of telomerase (unknown origin) by RT-qPCR analysis relative to control; design: concentration or dose not given beside the values; conditions: concentration not given here
[2] = tested on: NCI-H1299; assay: Cytotoxicity against human NCI-H1299 cells overexpressing telomerase assessed as inhibition of cell growth incubated for 48 hrs by SRB assay; format: functional, cell-based; conditions: NCI-H1299, 48 h
[3] = tested on: Huh-7; assay: Induction of apoptosis in human Huh-7 cells assessed as upregulation of p53 protein expression by measuring fold change by ELISA relative to control; format: functional
[4] = tested on: Huh-7; assay: Cytotoxicity against human Huh-7 cells overexpressing telomerase assessed as inhibition of cell growth incubated for 48 hrs by SRB assay; format: functional, cell-based; conditions: Huh-7, 48 h
[5] = tested on: Huh-7; assay: Induction of apoptosis in human Huh-7 cells assessed as downregulation of BCL-2 protein expression by measuring fold change by ELISA relative to control; format: functional
[6] = tested on: HepG2; assay: Cytotoxicity against human HepG2 cells overexpressing telomerase assessed as inhibition of cell growth incubated for 48 hrs by SRB assay; format: functional, cell-based; conditions: HepG2, 48 h
[7] = tested on: NCI-H460; assay: Cytotoxicity against human NCI-H460 cells overexpressing telomerase assessed as inhibition of cell growth incubated for 48 hrs by SRB assay; format: functional, cell-based; conditions: NCI-H460, 48 h
[8] = tested on: A549; assay: Cytotoxicity against human A549 cells overexpressing telomerase assessed as inhibition of cell growth incubated for 48 hrs by SRB assay; format: functional, cell-based; conditions: A549, 48 h
[9] = tested on: Huh-7; assay: Induction of apoptosis in human Huh-7 cells assessed as upregulation of BAX protein expression by measuring fold change by ELISA relative to control; format: functional
[10] = Cytotoxicity against HSF cells assessed as reduction in cell viability upto 50 ug/ml incubated for 48 hrs by SRB assay; format: toxicity, cell-based; conditions: human, dose < 50 µg/ml
[11] = tested on: Ehrlich; assay: Antitumor activity against mouse EAC cells implanted in Swiss albino mouse assessed as necrosis at 5 mg/kg, ip administered for 2 weeks by H and E staining based light microscopic analysis (reference value: 0 to 25%); format: functional
[12] = tested on: Ehrlich; assay: Antitumor activity against mouse EAC cells implanted in Swiss albino mouse assessed as erythrocyte count at 5 mg/kg, ip administered for 2 weeks (reference value: 4.1 +/- 0.23 x 10^6/mm3); format: functional
[13] = tested on: Ehrlich; assay: Antitumor activity against mouse EAC cells implanted in Swiss albino mouse assessed as intact anaplastic tumor cells at 5 mg/kg, ip administered for 2 weeks by H and E staining based light microscopic analysis (reference value: 75 to 100%); format: functional
[14] = tested on: Ehrlich; assay: Antitumor activity against mouse EAC cells implanted in Swiss albino mouse assessed as reduction in tumor volume at 5 mg/kg, ip administered for 2 weeks and measured on day 5, 10 and 14 relative to control; format: functional; design: scale not given: the % may be the effect or the level left
[15] = tested on: Ehrlich; assay: Antitumor activity against mouse EAC cells implanted in Swiss albino mouse assessed as increase in hemoglobin level at 5 mg/kg, ip administered for 2 weeks relative to control; format: functional
[16] = tested on: Ehrlich; assay: Antitumor activity against mouse EAC cells implanted in Swiss albino mouse assessed as reduction in total leukocytes count at 5 mg/kg, ip administered for 2 weeks relative to control; format: functional; design: scale not given: the % may be the effect or the level left
[17] = tested on: Ehrlich; assay: Antitumor activity against mouse EAC cells implanted in Swiss albino mouse assessed as reduction in TNF-alpha level at 5 mg/kg, ip administered for 2 weeks by ELISA relative to control; format: functional; design: scale not given: the % may be the effect or the level left
[18] = tested on: Ehrlich; assay: Antitumor activity against mouse EAC cells implanted in Swiss albino mouse assessed as reduction in total platelet count at 5 mg/kg, ip administered for 2 weeks relative to control; format: functional; design: scale not given: the % may be the effect or the level left
[19] = tested on: Ehrlich; assay: Antitumor activity against mouse EAC cells implanted in Swiss albino mouse assessed as increase in erythrocyte count at 5 mg/kg, ip administered for 2 weeks relative to control; format: functional
[20] = tested on: Ehrlich; assay: Antitumor activity against mouse EAC cells implanted in Swiss albino mouse assessed as increase in serum SOD level at 5 mg/kg, ip administered for 2 weeks by ELISA relative to control; format: functional
[21] = tested on: Ehrlich; assay: Antitumor activity against mouse EAC cells implanted in Swiss albino mouse assessed as mean corpuscular hemoglobin at 5 mg/kg, ip administered for 2 weeks (reference value: […] +/- 0.48 pg); format: functional
[22] = tested on: Ehrlich; assay: Antitumor activity against mouse EAC cells implanted in Swiss albino mouse assessed as total leukocyte count at 5 mg/kg, ip administered for 2 weeks (reference value: 7.11 +/- 0.27 x10^3/mm3); format: functional
[23] = tested on: Ehrlich; assay: Antitumor activity against mouse EAC cells implanted in Swiss albino mouse assessed as platelet count at 5 mg/kg, ip administered for 2 weeks (reference value: 963.66 +/- 29.63 x10^3/mm3); format: functional
[24] = tested on: Ehrlich; assay: Antitumor activity against mouse EAC cells implanted in Swiss albino mouse assessed as apoptotic cells at 5 mg/kg, ip administered for 2 weeks by H and E staining based light microscopic analysis (reference value: 25 to 50%); format: functional
[25] = tested on: Ehrlich; assay: Antitumor activity against mouse EAC cells implanted in Swiss albino mouse assessed as increase in caspase-3 level in serum at 5 mg/kg, ip administered for 2 weeks by ELISA relative to control; format: functional
[26] = tested on: Ehrlich; assay: Antitumor activity against mouse EAC cells implanted in Swiss albino mouse assessed as appearance of granulation tissue at 5 mg/kg, ip administered for 2 weeks by H and E staining based light microscopic analysis (reference value: 0 to 25%); format: functional
[27] = tested on: Ehrlich; assay: Antitumor activity against mouse EAC cells implanted in Swiss albino mouse assessed as mean corpuscular volume at 5 mg/kg, ip administered for 2 weeks (reference value: 46.78 +/- 0.43 fL); format: functional
[28] = tested on: Ehrlich; assay: Antitumor activity against mouse EAC cells implanted in Swiss albino mouse assessed as reduction in tumor weight at 5 mg/kg, ip administered for 2 weeks and measured on day 5, 10 and 14 relative to control; format: functional; design: scale not given: the % may be the effect or the level left
[29] = tested on: Ehrlich; assay: Antitumor activity against mouse EAC cells implanted in Swiss albino mouse assessed as inflammatory cell infiltration at 5 mg/kg, ip administered for 2 weeks by H and E staining based light microscopic analysis (reference value: 0 to 25%); format: functional
[30] = tested on: Ehrlich; assay: Antitumor activity against mouse EAC cells implanted in Swiss albino mouse assessed as hemoglobin level at 5 mg/kg, ip administered for 2 weeks (reference value: 9.25 +/- 0.26 g/dL); format: functional

Sequence of Telomerase reverse transcriptase (Homo sapiens) (O14746 whole entry): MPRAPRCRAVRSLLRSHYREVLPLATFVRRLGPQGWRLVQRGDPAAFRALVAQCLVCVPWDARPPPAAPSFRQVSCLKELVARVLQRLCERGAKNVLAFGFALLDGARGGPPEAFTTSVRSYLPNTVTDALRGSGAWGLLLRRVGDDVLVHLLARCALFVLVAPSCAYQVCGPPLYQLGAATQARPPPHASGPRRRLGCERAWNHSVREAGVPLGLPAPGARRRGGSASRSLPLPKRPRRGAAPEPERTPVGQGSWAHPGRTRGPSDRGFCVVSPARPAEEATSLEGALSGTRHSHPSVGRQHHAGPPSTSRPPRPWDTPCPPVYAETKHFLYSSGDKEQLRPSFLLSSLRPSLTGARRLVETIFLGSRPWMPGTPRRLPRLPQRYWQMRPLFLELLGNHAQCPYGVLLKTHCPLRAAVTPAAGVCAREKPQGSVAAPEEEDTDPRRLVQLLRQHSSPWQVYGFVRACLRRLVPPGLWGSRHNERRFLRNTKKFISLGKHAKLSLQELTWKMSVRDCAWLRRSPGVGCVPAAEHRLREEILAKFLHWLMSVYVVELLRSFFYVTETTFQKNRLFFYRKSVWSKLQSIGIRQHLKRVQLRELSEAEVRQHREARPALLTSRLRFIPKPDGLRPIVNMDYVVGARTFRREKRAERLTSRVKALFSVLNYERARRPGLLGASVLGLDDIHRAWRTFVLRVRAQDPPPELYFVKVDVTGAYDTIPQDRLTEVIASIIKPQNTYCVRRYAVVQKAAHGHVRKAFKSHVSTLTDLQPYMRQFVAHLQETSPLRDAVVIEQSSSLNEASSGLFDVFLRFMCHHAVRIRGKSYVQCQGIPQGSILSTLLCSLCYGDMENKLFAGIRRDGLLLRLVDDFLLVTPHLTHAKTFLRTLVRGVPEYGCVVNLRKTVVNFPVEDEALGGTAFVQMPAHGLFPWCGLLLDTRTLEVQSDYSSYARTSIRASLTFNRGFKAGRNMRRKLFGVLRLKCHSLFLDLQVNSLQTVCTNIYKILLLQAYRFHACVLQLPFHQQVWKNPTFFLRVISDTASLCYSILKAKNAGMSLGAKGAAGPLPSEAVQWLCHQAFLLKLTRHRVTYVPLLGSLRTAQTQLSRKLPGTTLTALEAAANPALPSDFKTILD

## COc1ccc(NC(=O)CSc2nc(O)c(C#N)c(-c3cccnc3)n2)cc1
[1]
  inhibition: 46.1%

## N#Cc1c(O)nc(SCC(=O)Nc2sc3c(c2C#N)CCC3)nc1-c1cccnc1
[2]
  pIC50: 4.54
[3]
  fold change (FC): 1.07
[4]
  pIC50: 4.60
[5]
  fold change (FC): 0.8
[6]
  pIC50: 4.39
[7]
  pIC50: 4.35
[1]
  inhibition: 58.6%
[8]
  pIC50: 4.05
[9]
  fold change (FC): 1.08
[10]
  Activity: Non-Toxic

## N#Cc1c(O)nc(SCC(=O)Nc2cc(Cl)ccc2Cl)nc1-c1cccnc1
[1]
  inhibition: 5.58%

## N#Cc1c(O)nc(SCC(=O)Nc2cccc([N+](=O)[O-])c2)nc1-c1cccnc1
[1]
  inhibition: 28.1%

## N#Cc1c(O)nc(SCC(=O)Nc2ccc3ccccc3c2)nc1-c1cccnc1
[1]
  inhibition: 26%

## N#Cc1ccc(NC(=O)CSc2nc(O)c(C#N)c(-c3cccnc3)n2)cc1
[1]
  inhibition: 21.7%

## CC(=O)c1ccc(NC(=O)CSc2nc(O)c(C#N)c(-c3cccnc3)n2)cc1
[1]
  inhibition: 30.2%

## N#Cc1c(O)nc(SCC(=O)Nc2nc3ccccc3[nH]2)nc1-c1cccnc1
[1]
  inhibition: 32.6%

## C/C(=C\C(=O)Nc1ccc(N2CCOCC2)cc1C(=O)O)c1ccc2ccccc2c1
[1]
  inhibition: 51.6%

## N#Cc1c(O)nc(SCC(=O)Nc2cccc3ccccc23)nc1-c1cccnc1
[1]
  inhibition: 34.5%

## N#Cc1c(O)nc(SCC(=O)Nc2ccc(Cl)c(C(F)(F)F)c2)nc1-c1cccnc1
[1]
  inhibition: 8.91%

## N#Cc1c(O)nc(SCC(=O)Nc2sc3c(c2C#N)CCCC3)nc1-c1cccnc1
[2]
  pIC50: 4.64
[3]
  fold change (FC): 1.13
[4]
  pIC50: 4.48
[5]
  fold change (FC): 0.77
[6]
  pIC50: 4.74
[7]
  pIC50: 4.39
[1]
  inhibition: 55.6%
[8]
  pIC50: 4.07
[9]
  fold change (FC): 1.14
[10]
  Activity: Non-Toxic

## C/C(=C\C(=O)Nc1ccccc1C(=O)O)c1ccc2ccccc2c1
[1]
  inhibition: 69.6%

## COc1cccc2c1C(=O)c1c(O)c3c(c(O)c1C2=O)C[C@@](O)(C(=O)CO)C[C@@H]3O[C@H]1C[C@H](N)[C@H](O)[C@H](C)O1 [DOXORUBICIN]
[11]
  Activity: 50%
[12]
  Activity: 5.93 10^6/mm3
[13]
  Activity: 25%
[14]
  Activity: 57.05%
[15]
  Activity: 21.94%
[16]
  Activity: 37.27%
[17]
  Activity: 64.14%
[18]
  Activity: 44.94%
[19]
  Activity: 44.63%
[20]
  Activity: 129.54%
[21]
  Activity: 16.43 pg
[22]
  Activity: 4.46 10^3/mm3
[23]
  Activity: 530.5 10^3/mm3
[24]
  Activity: 50%
[25]
  Activity: 64.95%
[26]
  Activity: 0%
[27]
  Activity: 51.14 fL
[28]
  Activity: 62.52%
[29]
  Activity: 0%
[30]
  Activity: 11.28 g/dL

## N#Cc1c(O)nc(SCC(=O)Nc2nc3ccccc3s2)nc1-c1cccnc1
[1]
  inhibition: 32.1%
